According to patent US20210308211A1, “METHOD OF TREATING VIRAL INFECTIONS” (priority 2020, published 2021):
Values joined by “and” are separate entries in the source; they are usually repeats but may differ in a detail not shown here. Identical values can stand only once. Non-standard residues stand in square brackets, D forms with d. Residues, ends and D or L forms follow the SMILES beside them. pS = N[C@@H](COP(=O)(O)O)C(=O)O

Key:
MRL/lpr B cells = assay: Cellular uptake of fluorescent P140 in MRL/lpr B cells (flow cytometry, confocal); format: cell-based, mouse
Text: FIG. 8. Cellular uptake of fluorescent P140 peptide in 5.4% mannitol or 10% trehalose in MRL/lpr B cells and Raji cells as visualized by flow cytometry. B cells were from 12-14 week-old MRL/lpr mice (primary cells); Raji cells are an established cell line derived in 1963 from B-lymphocyte of a patient with Burkitt's lymphoma.
FIG. 9. Confocal images of B cells of FIG. 10. All confocal images were taken in the same microscopic settings. Rab9 (red) identifies the late endosomal compartment where P140 localizes before homing into lysosomes DAPI (blue) identifies DNA.
For P140 peptide activity, HSC70 binding and endocytosis appear to be important. It is believed that endocytosis must occur through the clathrin route. This implies that peptide+excipient should have a size in the range of 30 to 500 nm in diameter. For example P140+mannitol are in the 100 nm region whereas P140+trehalose are below 10 nm and therefore not effective binding to HSC70. […] B cells were from 12-14 week-old MRL/lpr mice (primary cells); Raji cells are an established cell line derived in 1963 from B-lymphocyte of a patient with Burkitt's lymphoma. […] The confocal images show the late endosomal compartment where P140 localizes before homing into lysosomes; DAPI identifies DNA.

Balb/c mice = assay: 31-day HDM-induced asthma model, airway response to methacholine (Flexivent); format: in vivo, mouse; conditions: for Crs / Ers / Rrs: per mouse
Protocol: The aim of this study was to evaluate the effect of the P140 phosphopeptide administered systemically (intravenously) in a 31-day model of HDM-induced asthma in mice. The P140 phosphopeptide was solubilized in sterile water (Braun) and 10x concentrate sterile saline was added to adjust osmolarity to 300 mosm. Osmolarity was controlled with a micro osmometer (Löser, type 15) and validated (303 mosm). The P140 phosphopeptide was used in vivo at the dose of 4 mg/kg by intravenous (i.v.) routes. Control animals received equivalent volumes (2 ml/kg) of saline (Table 8).
Nine-week-old male Balb/c mice were sensitized by intranasal (i.n.) administration of HDM extract (Stallergenes): 1 μg in 25 μl saline on days 0, 1, 2, 3, 4, and 10 μg on days 14 and 21. Mice were challenged by i.n. administration of HDM (1 μg) and/or saline on days 28, 29 and 30. Mice were treated by i.v. injection (2 ml/kg) of P140 or solvent on day 25 (see FIG. 12).
Airway response to Methacholine (Flexivent®). On day 31, airway responses to PBS then methacholine were assessed using a forced oscillation technique (Flexivent®, SCIREQ, Montreal, Canada) as described (Daubeuf et al, Bioprotocol, 645, 2013). Mice were anesthetized with an intraperitoneal injection of xylasine (Rompun®; 1 mg/kg), followed fifteen minutes later by an intraperitoneal injection of pentobarbital sodium (3.64 mg/Kg). The trachea was exposed and an 18-gauge metal needle was inserted into the trachea. Airways were connected to a computer-controlled small animal ventilator, and quasi-sinusoidally ventilated with a tidal volume of 10 ml/Kg at a frequency of 150 breaths/min and a positive end-expiratory pressure of 2 cm H2O to achieve a mean respiratory volume close to that of spontaneous breathing. After baseline measurement, each mouse was challenged for 10 sec with an aerosol of PBS generated with an in-line nebulizer and administered directly through the ventilator. Then, aerosolized methacholine (MCh) at 50 mg/ml was administered for 10 sec. The effect of methacholine was calculated as the peak response, i.e. the mean of the three maximal values integrated for calculation of airway resistance (R, cm H20·s·mL^−1), elastance (E, cm H20·mL^−1) and compliance (C, mL·cm H20^−1).
All mice were sensitized to HDM on days 0, 1, 2, 3, 4, 14, 21, and challenged either with saline ([…]) or HDM (challenge with allergen). Results are presented as means±SEM. Differences between groups were tested for statistical significance using Student's t test for inflammatory cells and a two-way ANOVA followed by Bonferroni post-test for airway responses.

HSC70 protein = biological target: T1, HSC70 protein (Bos taurus, UniProt P19120); assay: BIAcore binding of peptides to immobilized HSC70; set-up: species or system bovine
T1 construct: purchased Stressgen
T1 sequence (P19120 whole entry): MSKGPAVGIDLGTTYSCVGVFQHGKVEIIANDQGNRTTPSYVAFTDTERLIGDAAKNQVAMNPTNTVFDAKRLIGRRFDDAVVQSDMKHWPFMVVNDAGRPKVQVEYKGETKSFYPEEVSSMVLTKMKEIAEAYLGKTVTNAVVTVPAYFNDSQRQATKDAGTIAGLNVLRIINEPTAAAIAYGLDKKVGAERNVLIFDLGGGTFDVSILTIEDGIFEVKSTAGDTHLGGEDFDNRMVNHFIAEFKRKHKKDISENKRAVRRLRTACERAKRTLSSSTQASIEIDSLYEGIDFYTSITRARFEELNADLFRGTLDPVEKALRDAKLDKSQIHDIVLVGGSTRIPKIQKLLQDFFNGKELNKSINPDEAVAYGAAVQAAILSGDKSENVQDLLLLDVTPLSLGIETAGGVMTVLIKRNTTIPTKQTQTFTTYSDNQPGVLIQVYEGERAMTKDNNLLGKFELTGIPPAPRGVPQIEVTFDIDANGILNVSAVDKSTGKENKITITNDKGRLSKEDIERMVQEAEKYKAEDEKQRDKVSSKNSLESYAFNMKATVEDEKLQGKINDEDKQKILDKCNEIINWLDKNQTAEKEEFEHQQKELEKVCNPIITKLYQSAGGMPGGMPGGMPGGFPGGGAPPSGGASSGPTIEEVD
Protocol: BIAcore 3000 system (Biacore AB) was used to evaluate the binding of P140 peptides to HSC70 protein (Page et al., 2009, and 2011). Sensor chip CM5, surfactant P20, amine coupling kit containing N-hydroxysuccinimide (NHS) and N-ethyl-N′-dimethylaminopropyl carbodiimide (EDC), 2-(2-pyridinyldithio)ethaneamine (PDEA) and ethanolamine were from Biacore AB. Biosensor assays were performed with HBS-EP buffer as running buffer (10 mM HEPES, 150 mM NaCl, 3 mM EDTA, 0.005% surfactant P20, pH 7.4). The compounds were diluted in the running buffer. The sensor chip surface was regenerated after each experiment by injecting 10 μL of 10 mM HCl. Recombinant bovine HSC70 (Stressgen) was immobilized on flow cells of a CM5 sensor chip through its thiol groups using 35 μL PDEA in 50 mM borate buffer, pH 8.3 on the NHS/EDC-activated matrix. Then, 35 μL of HSC70 (100 μg/mL in formate buffer, pH 4.3) were injected until a response of 13,000 response units (RU) corresponding to 13 ng/mm^2 of HSC70 was immobilized. Twenty μL of a 50 mM cysteine/1 M NaCl solution was used to saturate unoccupied sites on the chip. The direct binding measurement of P140 peptides to HSC70 was carried out at 25° C. with a constant flow rate of 20 μL/min. P140 peptide and analogues were injected in the flux at different concentrations for 3 min, followed by a dissociation phase of 3 min. The kinetic parameters were calculated using the BIAeval 3.1 software on a personal computer. Analysis was performed using the simple 1:1 Langmuir binding model. The specific binding profiles were obtained after subtracting the response signal from the control empty channel and from blank-buffer injection. The fitting to each model was judged by the χ^2 value and randomness of residue distribution compared to the theoretical model.

[1] = chronic asthma, methacholine 50 mg/ml, P140 i.v. 4 mg/kg day 25, p<0.05
[2] = HDM + P140 (HDM-challenged), first unlabelled sub-column (presumably PBS/baseline)
[3] = HDM + P140 (HDM-challenged), second unlabelled sub-column (presumably MCh 50 mg/mL)
[4] = P140, saline-challenged (chronic asthma), first unlabelled sub-column (presumably PBS/baseline)
[5] = P140, saline-challenged (chronic asthma), second unlabelled sub-column (presumably MCh 50 mg/mL)

Q: Which results are given for `CC[C@H](C)[C@H](NC(=O)[C@H](Cc1ccccc1)NC(=O)[C@H](C)NC(=O)[C@H](Cc1ccc(O)cc1)NC(=O)CNC(=O)[C@H](CCCNC(=N)N)NC(=O)[C@@H]1CCCN1C(=O)[C@H](CCCCN)NC(=O)CNC(=O)[C@H](COP(=O)(O)O)NC(=O)[C@H](CCCNC(=N)N)NC(=O)[C@H](CCCCN)NC(=O)[C@H](CO)NC(=O)[C@H](Cc1ccc(O)cc1)NC(=O)[C@@H](NC(=O)[C@H](CCSC)NC(=O)[C@H](Cc1c[nH]cn1)NC(=O)[C@@H](NC(=O)[C@@H](N)CCCNC(=N)N)[C@@H](C)CC)C(C)C)C(=O)N[C@@H](CCC(=O)O)C(=O)N[C@@H](Cc1ccc(O)cc1)C(=O)O` [Compound P140] (H-RIHMVYSKR[pS]GKPRGYAFIEY-OH; N-terminus and C-terminus assumed)?
A: Cellular uptake (flow cytometry) (MRL/lpr B cells; fluorescent peptide in 10% trehalose compared with 5.4% mannitol, MRL/lpr B cells): Much less cellular uptake; Entry into B cells (confocal microscopy) (MRL/lpr B cells; peptide in trehalose compared with mannitol): enters B cells much less; Airway resistance, elastance or compliance (in words) (Balb/c mice; allergen (HDM)-challenged mice, compared to the solvent group): no effect; Airway resistance, change vs solvent group (Balb/c mice; chronic asthma, methacholine 50 mg/ml, P140 i.v. 4 mg/kg day 25, non-significant (n=5)): −42%; Airway compliance, change vs solvent group (Balb/c mice; [1]): +115%; Elastance, change vs solvent group (Balb/c mice; [1]): −65%; Crs (Balb/c mice; [2]): 0.0554 mL/cmH2O and 0.0514 mL/cmH2O and 0.0528 mL/cmH2O and 0.0566 mL/cmH2O and 0.0492 mL/cmH2O and 0.0458 mL/cmH2O and 0.0552 mL/cmH2O and 0.0589 mL/cmH2O; Ers (Balb/c mice; [2]): 18.0582 cmH2O/mL and 19.4433 cmH2O/mL and 18.9515 cmH2O/mL and 17.6781 cmH2O/mL and 20.3326 cmH2O/mL and 21.8367 cmH2O/mL and 18.1106 cmH2O/mL and 16.9723 cmH2O/mL; Rrs (Balb/c mice; [2]): 0.6405 cmH2O.s/mL and 0.6092 cmH2O.s/mL and 0.7972 cmH2O.s/mL and 0.5185 cmH2O.s/mL and 0.6804 cmH2O.s/mL and 0.6365 cmH2O.s/mL and 0.4744 cmH2O.s/mL and 0.5456 cmH2O.s/mL; Crs (Balb/c mice; [3]): 0.0146 mL/cmH2O and 0.0075 mL/cmH2O and 0.0062 mL/cmH2O and 0.0065 mL/cmH2O and 0.0101 mL/cmH2O and 0.0060 mL/cmH2O and 0.0138 mL/cmH2O and 0.0081 mL/cmH2O; Ers (Balb/c mice; [3]): 79.8018 cmH2O/mL and 148.4985 cmH2O/mL and 188.1151 cmH2O/mL and 219.9720 cmH2O/mL and 125.7688 cmH2O/mL and 173.4582 cmH2O/mL and 72.6033 cmH2O/mL and 131.8035 cmH2O/mL; Rrs (Balb/c mice; [3]): 5.6421 cmH2O.s/mL and 10.3886 cmH2O.s/mL and 11.9654 cmH2O.s/mL and 10.5419 cmH2O.s/mL and 8.8810 cmH2O.s/mL and 13.0087 cmH2O.s/mL and 7.0705 cmH2O.s/mL and 9.7688 cmH2O.s/mL; Rrs (Balb/c mice; P140, saline-challenged (chronic asthma)): 0.5590 cmH2O.s/mL and 0.8945 cmH2O.s/mL and 0.5926 cmH2O.s/mL and 0.8074 cmH2O.s/mL and 0.4418 cmH2O.s/mL; Crs (Balb/c mice; [4]): 0.0545 mL/cmH2O and 0.0498 mL/cmH2O and 0.0569 mL/cmH2O and 0.0541 mL/cmH2O and 0.0650 mL/cmH2O; Ers (Balb/c mice; [4]): 18.3671 cmH2O/mL and 20.0811 cmH2O/mL and 17.5777 cmH2O/mL and 18.4893 cmH2O/mL and 15.3975 cmH2O/mL; Crs (Balb/c mice; [5]): 0.0304 mL/cmH2O and 0.0132 mL/cmH2O and 0.0380 mL/cmH2O and 0.0238 mL/cmH2O and 0.0370 mL/cmH2O; Ers (Balb/c mice; [5]): 33.3720 cmH2O/mL and 84.9688 cmH2O/mL and 26.3200 cmH2O/mL and 42.4174 cmH2O/mL and 28.6047 cmH2O/mL; Rrs (Balb/c mice; [5]): 4.1067 cmH2O.s/mL and 9.4002 cmH2O.s/mL and 2.2229 cmH2O.s/mL and 4.0926 cmH2O.s/mL and 2.1844 cmH2O.s/mL; Baseline airway resistance, elastance and compliance after PBS inhalation (in words) (Balb/c mice; saline-challenged mice, i.v. 4 mg/kg day 25, compared to solvent-treated mice): no effect; Rmax (RU) (HSC70 protein; 25° C., 1:1 Langmuir model): 83.3 RU; kon (HSC70 protein; 25° C., 1:1 Langmuir model, analyte 1.56-25 μM, read-out: ka): 450 M⁻¹ s⁻¹; Affinity for HSC70, oxidized vs non-oxidized peptide (in words) (HSC70 protein; P140 compared with P140 M(O)): not statistically different; Req (RU) (HSC70 protein; peptide 1.56 μM): 15.3 RU; Req (RU) (HSC70 protein; peptide 3.12 μM): 25.8 RU; Req (RU) (HSC70 protein; peptide 6.25 μM): 39.5 RU; Req (RU) (HSC70 protein; peptide 12.5 μM): 53.6 RU; Req (RU) (HSC70 protein; peptide 25 μM): 65.2 RU; kobs (HSC70 protein; peptide 25 μM): 0.0144 s⁻¹
